Reference: patent US12264173B2 (GILEAD SCIENCES, INC., priority 2020, dated 2025)

What was measured:
POLRMT [1] = biological target: T1, POLRMT (Homo sapiens, UniProt O00411); assay: Single nucleotide incorporation by human mitochondrial RNA polymerase (POLRMT); assay type: biochemical; conditions: nucleotide triphosphate
Protocol: A mixture of MTCN buffer (50 mM MES, 25 mM Tris-HCl, 25 mM CAPS, and 50 mM NaCl, pH 7.5), 200 nM 5′^32 P-R12/D18, 10 mM MgCl2, 1 mM DTT, and 376 nM POLRMT was preincubated at 30° C. for 1 min. The reaction was started by addition of 500 μM (final) natural NTP or NTP analogs. At selected time points, the reaction mixture was removed and quenched with gel loading buffer containing 100 mM EDTA, 80% formamide, and bromophenol blue, and heated at 65° C. for 5 min. The samples were run on a 20% polyacrylamide gel (8 M urea), and the product formation was quantified using Typhoon Trio Imager and Image Quant TL Software (GE Healthcare, Piscataway, NJ). The rate of single nucleotide incorporation by mt RNA pol was calculated by fitting the product formation using the single exponential equation: [1R13]=A(1−e^−kt), where [1R13] represents the amount (in nM) of the elongated product formed, t represents the reaction time, k represents the observed rate, and A represents the amplitude of the exponential.

DENV2 NS5 = DENV2 NS5 (Dengue virus type 2, UniProt P14340); assay: DENV Pol IC50 (DENV2-NS5 polymerase assay); assay type: biochemical; conditions: nucleotide triphosphate
Protocol: A 244 nucleotide secondary structureless heteropolymeric RNA (sshRNA) with sequence 5′-(UCAG)20(UCCAAG)14(UCAG)20-3′ (SEQ ID NO: 1) is used as the template with 5′-CUG-3′ primer in the DENV2-NS5 polymerase assay. Six two-fold dilutions of compounds starting from 200 nM and no inhibitor control are plated in 96-well plates. 100 nM DENV2 NS5 is preincubated for 5 minutes at room temperature in a reaction mixture containing 40 mM Tris-HCl (pH 7.5), 10 mM NaCl, 3 mM DTT, 0.2 unit/μL RNasin Plus RNase Inhibitor, 200 ng/μL sshRNA, 20 μM CUG and 2 mM MgCl2. Enzyme mix is added to compound dilutions and reactions initiated by the addition of a mixture containing 20 μM of three natural NTP plus 2 μM of analog:base matched competing natural NTP containing 1:100 α-33P-NTP. After 90 minutes at 30° C., 5 μL of the reaction mixtures are spotted on DE81 anion exchange paper. Filter papers are washed three times with Na2HPO4 (125 mM, pH 9) for 5 minutes, rinsed with water and ethanol, then air-dried and exposed to phosphorimager. Synthesized RNA is quantified using Typhoon Trio Imager and Image Quant TL Software and reaction rates are calculated by linear regression using GraphPad Prism 5.0. IC50 values are calculated in Prism by non-linear regression analysis using the dose-response (variable slope) equation (four-parameter logistic equation): Y=Bottom+(Top-Bottom)/(1+10^((Log IC50−X)*HillSlope)).

POLRMT [2] = biological target: T1, POLRMT; assay: Inhibition of human mitochondrial RNA polymerase (POLRMT); assay type: biochemical; conditions: nucleotide triphosphate
Protocol: All reaction mixtures contained 50 mM Tris-HCl buffer (pH 8.0), 0.2 mg/ml BSA, 2 mM DTT, 0.05 mg/ml activated fish sperm DNA, 10 mM MgCl2, 1.3 μCi [α-^33P]dTTP (3,000 Ci/mmol), and 2 μMeach of dATP, dGTP, and TTP. The optimal enzyme concentrations were chosen to be in the linear range of enzyme concentration ([E]) versus activity, and the reaction time was selected to ensure that 10% of the substrate was consumed. All reactions were run at 37° C. […] The reactions were heated to 32° C. and initiated by adding 2.5 μM each of the four natural NTPs and 1.5 μCi of [^33P]GTP. After incubation for 30 min at 32° C., the reactions were spotted on DE81 paper before being processed for quantification.

RSV RNP complexes = biological target: T2, RSV RNP complexes (Human respiratory syncytial virus A, UniProt P28887); assay: RSV RNP assay (transcription); assay type: biochemical, RSV A2
T2 construct: The supernatant (S3) fraction, containing the enriched RSV RNP complexes, was collected; endogenous in cells; host or cells: HEp-2 cells infected with RSV A2; detergent-extracted S3 fraction
T2 sequence (P03421 whole entry): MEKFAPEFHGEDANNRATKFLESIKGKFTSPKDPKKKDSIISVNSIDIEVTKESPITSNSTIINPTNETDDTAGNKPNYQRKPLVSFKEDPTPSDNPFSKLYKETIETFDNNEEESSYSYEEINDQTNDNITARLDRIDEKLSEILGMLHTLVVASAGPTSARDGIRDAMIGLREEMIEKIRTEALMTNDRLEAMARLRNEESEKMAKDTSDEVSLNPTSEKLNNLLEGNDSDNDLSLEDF
T2 sequence (P28887 whole entry): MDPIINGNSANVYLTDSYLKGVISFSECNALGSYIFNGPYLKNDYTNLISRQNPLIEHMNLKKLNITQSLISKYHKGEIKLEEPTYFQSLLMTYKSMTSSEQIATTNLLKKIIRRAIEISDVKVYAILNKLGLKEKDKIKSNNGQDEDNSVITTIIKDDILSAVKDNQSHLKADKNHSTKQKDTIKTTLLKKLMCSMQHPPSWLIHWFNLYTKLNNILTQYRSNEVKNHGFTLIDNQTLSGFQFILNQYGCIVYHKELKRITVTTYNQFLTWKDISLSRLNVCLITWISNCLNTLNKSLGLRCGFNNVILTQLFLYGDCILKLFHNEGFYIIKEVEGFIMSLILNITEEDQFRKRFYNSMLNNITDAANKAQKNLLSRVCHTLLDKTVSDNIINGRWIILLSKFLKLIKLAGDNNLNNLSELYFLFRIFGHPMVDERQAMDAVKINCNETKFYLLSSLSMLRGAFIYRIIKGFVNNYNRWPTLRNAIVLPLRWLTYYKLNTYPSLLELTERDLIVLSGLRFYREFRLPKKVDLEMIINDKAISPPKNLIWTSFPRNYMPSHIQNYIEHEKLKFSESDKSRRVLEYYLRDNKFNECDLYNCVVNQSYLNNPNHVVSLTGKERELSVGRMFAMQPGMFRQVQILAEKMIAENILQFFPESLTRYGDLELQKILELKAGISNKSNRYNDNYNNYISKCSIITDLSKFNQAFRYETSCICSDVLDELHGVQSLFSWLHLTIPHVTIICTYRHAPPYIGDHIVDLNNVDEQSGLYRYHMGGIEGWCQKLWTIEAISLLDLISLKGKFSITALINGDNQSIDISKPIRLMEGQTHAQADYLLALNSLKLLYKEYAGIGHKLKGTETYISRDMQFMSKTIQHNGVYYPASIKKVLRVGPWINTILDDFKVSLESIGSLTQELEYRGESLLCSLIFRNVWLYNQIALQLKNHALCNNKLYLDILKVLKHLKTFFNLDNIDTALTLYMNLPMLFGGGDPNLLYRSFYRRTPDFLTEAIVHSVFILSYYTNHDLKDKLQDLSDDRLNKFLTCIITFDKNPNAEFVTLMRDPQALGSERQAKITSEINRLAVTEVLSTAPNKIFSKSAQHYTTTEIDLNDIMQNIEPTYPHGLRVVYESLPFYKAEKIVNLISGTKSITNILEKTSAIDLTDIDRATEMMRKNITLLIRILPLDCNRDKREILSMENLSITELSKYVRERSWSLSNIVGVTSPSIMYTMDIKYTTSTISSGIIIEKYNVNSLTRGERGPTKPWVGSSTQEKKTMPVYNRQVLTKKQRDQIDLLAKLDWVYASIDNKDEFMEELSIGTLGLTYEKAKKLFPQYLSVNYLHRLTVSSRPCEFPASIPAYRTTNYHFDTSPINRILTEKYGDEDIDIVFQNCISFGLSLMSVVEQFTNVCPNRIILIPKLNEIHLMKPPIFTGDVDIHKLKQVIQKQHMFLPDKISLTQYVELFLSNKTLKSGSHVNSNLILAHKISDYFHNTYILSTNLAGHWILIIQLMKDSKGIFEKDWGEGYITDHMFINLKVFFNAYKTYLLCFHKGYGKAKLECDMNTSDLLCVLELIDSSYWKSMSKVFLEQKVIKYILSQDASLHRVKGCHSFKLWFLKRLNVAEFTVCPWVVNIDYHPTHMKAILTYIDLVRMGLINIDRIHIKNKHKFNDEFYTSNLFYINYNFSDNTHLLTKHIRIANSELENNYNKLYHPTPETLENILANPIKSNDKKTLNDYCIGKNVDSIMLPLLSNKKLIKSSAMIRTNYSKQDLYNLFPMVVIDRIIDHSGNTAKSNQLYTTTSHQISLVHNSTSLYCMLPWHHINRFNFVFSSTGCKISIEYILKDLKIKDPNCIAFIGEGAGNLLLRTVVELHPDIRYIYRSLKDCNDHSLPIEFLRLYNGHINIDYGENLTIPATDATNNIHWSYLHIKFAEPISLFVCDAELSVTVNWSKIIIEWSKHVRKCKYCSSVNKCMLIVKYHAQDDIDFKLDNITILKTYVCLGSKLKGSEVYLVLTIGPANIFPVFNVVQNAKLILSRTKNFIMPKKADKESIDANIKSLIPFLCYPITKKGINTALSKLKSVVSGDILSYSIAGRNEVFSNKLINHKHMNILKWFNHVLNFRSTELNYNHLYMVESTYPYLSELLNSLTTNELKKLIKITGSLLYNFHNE
Protocol: RSV ribonucleoprotein (RNP) complexes were prepared from a method modified from Mason et al. (1). HEp-2 cells were plated at a density of 7.1×10^4 cells/cm^2 in MEM+10% fetal bovine serum (FBS) and allowed to attach overnight at 37° C. (5% CO2). Following attachment, the cells were infected with RSV A2 (MOI=5) in 35 mL MEM+2% FBS. At 20 hours post-infection, the media was replaced with MEM+2% FBS supplemented with 2 μg/mL actinomycin D and returned to 37° C. for one hour. The cells were then washed once with PBS and treated with 35 mL of PBS+250 μg/mL lyso-lecithin for one minute, after which all liquid was aspirated. […] The supernatant (S3) fraction, containing the enriched RSV RNP complexes, was collected and the protein concentration determined by UV absorbance at 280 nm. […]
Transcription reactions contained 25 μg of crude RSV RNP complexes in 30 μL of reaction buffer [50 mM TRIS-acetate (pH 8.0), 120 mM potassium acetate, 5% glycerol, 4.5 mM MgCl2, 3 mM DTT, 2 mM ethyleneglycol-bis(2-aminoethylether)-tetraacetic acid (EGTA), 50 μg/mL BSA, 2.5 U RNasin (Promega), ATP, GTP, UTP, CTP and 1.5 uCi [α-32P] […] The radiolabled nucleotide used in the transcription assay was selected to match the nucleotide analog being evaluated for inhibition of RSV RNP transcription. […]

T1 sequence (O00411 42-1230): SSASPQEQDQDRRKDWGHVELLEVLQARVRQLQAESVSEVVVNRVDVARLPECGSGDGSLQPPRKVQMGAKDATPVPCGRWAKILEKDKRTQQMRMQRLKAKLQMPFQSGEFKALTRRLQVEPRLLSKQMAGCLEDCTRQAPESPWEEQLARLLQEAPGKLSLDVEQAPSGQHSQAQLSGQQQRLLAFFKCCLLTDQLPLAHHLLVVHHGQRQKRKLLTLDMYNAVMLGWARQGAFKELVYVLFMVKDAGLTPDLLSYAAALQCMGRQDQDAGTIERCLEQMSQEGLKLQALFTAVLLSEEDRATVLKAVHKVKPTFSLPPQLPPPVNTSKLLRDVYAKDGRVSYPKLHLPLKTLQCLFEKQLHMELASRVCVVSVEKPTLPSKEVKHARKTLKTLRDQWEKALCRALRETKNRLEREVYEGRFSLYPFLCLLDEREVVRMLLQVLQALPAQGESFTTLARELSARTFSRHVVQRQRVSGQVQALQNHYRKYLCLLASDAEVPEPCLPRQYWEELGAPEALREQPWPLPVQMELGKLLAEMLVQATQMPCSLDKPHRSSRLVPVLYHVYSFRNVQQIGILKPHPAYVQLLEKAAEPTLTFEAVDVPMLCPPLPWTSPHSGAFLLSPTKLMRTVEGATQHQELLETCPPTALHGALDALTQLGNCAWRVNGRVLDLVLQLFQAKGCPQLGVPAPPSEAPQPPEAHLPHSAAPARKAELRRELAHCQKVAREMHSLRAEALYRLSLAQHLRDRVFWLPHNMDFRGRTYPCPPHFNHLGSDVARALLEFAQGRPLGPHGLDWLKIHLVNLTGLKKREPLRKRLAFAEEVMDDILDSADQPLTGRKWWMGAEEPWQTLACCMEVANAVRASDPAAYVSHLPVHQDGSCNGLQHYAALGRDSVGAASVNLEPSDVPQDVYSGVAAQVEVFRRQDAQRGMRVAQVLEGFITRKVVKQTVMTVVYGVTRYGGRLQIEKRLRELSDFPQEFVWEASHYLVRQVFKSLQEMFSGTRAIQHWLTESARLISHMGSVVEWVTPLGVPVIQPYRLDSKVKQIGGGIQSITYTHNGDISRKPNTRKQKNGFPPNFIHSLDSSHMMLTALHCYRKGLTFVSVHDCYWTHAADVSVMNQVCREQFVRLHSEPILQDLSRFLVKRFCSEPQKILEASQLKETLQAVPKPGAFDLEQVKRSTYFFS

Row | SMILES | POLRMT SNI % (POLRMT [1]) | IC50 (DENV2 NS5) | IC50 (POLRMT [2]) | IC50 (RSV RNP complexes)
1 | N#C[C@]1(COP(=O)(O)OP(=O)(O)OP(=O)(O)O)O[C@@H](c2ccc3c(N)ncnn23)[C@H](O)[C@@H]1O [—CN] | 0.6% | 830 nM | > 200000 nM | 44 nM
2 | Nc1ncnn2c([C@@H]3O[C@](CCl)(COP(=O)(O)OP(=O)(O)OP(=O)(O)O)[C@@H](O)[C@H]3O)ccc12 [—CH2Cl] | 0.11% | 7100 nM | – | 1100 nM
3 | [N-]=[N+]=N[C@]1(COP(=O)(O)OP(=O)(O)OP(=O)(O)O)O[C@@H](c2ccc3c(N)ncnn23)[C@H](O)[C@@H]1O [—N3] | 132% | 140 nM | 900 nM | –
